Assay results: patent US20150025077A1 (COYOTE PHARMACEUTICALS, INC., priority 2012, published 2015)

Assays:
[1] = test system: Mouse Neuro2A neuroblastoma cells; test: Neuro2A cells with neurites after GGTI-298 (Example 16); assay type: cell-based; settings: 10 μM
Experimental: Mouse Neuro2A neuroblastoma cells were cultured in DMEM supplemented with 10% FBS for 24 hrs. […] Then differentiation was induced by retinoic acid in DMEM supplemented with 2% FBS. The cell culture was incubated with a Geranylgeranyl Transferase inhibitor, GGTI-298. After 24 hrs incubation, cells with neurites were counted.

HSP70 [2] = test: HSP70 induction in rat hippocampus with or without kainic acid injection (immunohistochemistry, western blot); assay type: in vivo; settings: KA stereotactically injected in hippocampus; localized in the injection site
Experimental: Stereotactic injections of Kainic acid into rat hippocampus tissues led to increased damages in neurons. […] Under this condition, neurons and HSP70 expression was stained by immunohistochemistry techniques. HSP70 expression was induced in a very specific area only that KA was injected. The induced area was not stained by HSP70 antibody when KA was not injected, but CNS-102 was dosed.
HSP70 induction by dosing CNS-102 in the absence of the KA injection was limited in western blot experiments using hippocampus lysates. 120% or 130% of HSP70 expression could be seen by comparing those of vehicle dosing control experiments.

HSP70 [3] = test: HSP70 expression in neuro2A cells, western blot; assay type: cell-based, mouse; settings: for HSP70 western signal (absence of compounds = 1.00): 48 hours, GGTI-298
Experimental: Differentiation was induced and cells incubated with geranylgeranyl transferase I inhibitor, GGTI-298. Cells were harvested and lysates were prepared and analyzed by western blot for HSP70 and HSP90. Western signals in the absence of the compounds were normalized as 1.00.

HSP70 [4] = test: HSP70 gene expression in rat brain tissue, qRT-PCR; assay type: in vivo; settings: 12 mg/kg oral
Experimental: […] Expression of selected HSPs was detected using qRT-PCR with expression of the GAPDH gene used as the control. To represent the effect of CNS-102 on HSP expression, mean fold change is calculated as CNS-102 treated/PBS treated for each HSP at each time point.

HSP70 [5] = test: HSP70 expression in cortex and hippocampus in vivo, western blot; set-up: species or system rat; HSP70 Expression (average, western blot): scale not given here; settings: for delta HSP70 expression, CNS-102 minus PBS: 12 mg/kg oral
Experimental: The time course of protein expression, as measured by western blot for HSP70, was determined in triplicate for hippocampus, and cortex tissue samples taken from each of 5 animals per group at each of four time points (24, 48, 72, and 96 h) after treatment with either PBS or 12 mg/kg CNS-102, administered orally. The average expression for each treatment group is calculated at each time point for each tissue using PROC MIXED in SAS and are tabulated, along with the difference (delta) between treatment averages and a p-value comparing the difference to zero, below.

Sprague Dawley rats = test: Kainic acid stereotactic hippocampus injection model, fraction of cells damaged; assay type: in vivo, rat; settings: for Difference of mean fraction damaged to pooled PBS / Mean fraction of cells damaged in the hippocampus: 12 mg/kg oral; for Mean fraction of cells damaged in the hippocampus: pooled PBS 0.187
Experimental: CNS-102 was administered orally to Sprague Dawley rats at 12 mg/kg. After dosing, KA was stereotactically injected into the hippocampus at 24, 48, 72, 96 and 168 hours to induce neuron damage. After 24 h, hippocampus tissue was collected, stained, and imaged. The scans were analyzed by Image J to calculate the fraction of cells having KA-induced damage. Average fraction damaged in the hippocampus from ten animals for each treatment (PBS vs. 12 mg/kg CNS-102) by time (24, 48, 72, 96 and 168 hours) combination was estimated with PROC MIXED in SAS. Comparisons of the CNS-102 treatment groups to the pooled PBS treatment at the different times can be made, giving the results tabulated below.
The fraction of cells damaged in the kainic acid model was determined on 130 rats, each receiving one dose of CNS-102 at either 0, 1, 3, 6, 12 or 24 mg/kg. PBS was used for dosing at 0 mg/kg. The linear model of the log10 percent damage versus concentration is graphically shown FIG. 5.
After dosing, KA was stereotactically injected into the hippocampus at 72 hours to induce neuron damage. After 24 h, hippocampus tissue was collected, stained, and imaged. The scans were analyzed by Image J to calculate the fraction of cells having KA-induced damage.
The indicated compounds or vehicle control were orally dosed to Sprague-Dawley rats, and Kainic acid was injected. After dosing, KA was stereotactically injected into the hippocampus at 72 hours to induce neuron damage. After 24 h, hippocampus tissue was collected, stained, and imaged. The scans were analyzed by Image J to calculate the fraction of cells having KA-induced damage. Neurons damaged by Kainic acid (mean of hippocampus CA3 neurons damaged) were quantified.

Rap1 = test: Prenylation of Rap1 in Neuro2A cells, western blotting; assay type: cell-based, mouse; settings: 100 nM
Procedure, shortened: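 Mouse Neuro2A cells in DMEM/10% FBS were treated with compound for 24 h, then GGTI-298 was added for a further 24 h. Un-prenylated and total Rap1 were quantified by western blot, normalized to GAPDH; the un-prenylated/total ratio was expressed as percent of GGTI-only control, mean of two biological repeats.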

Compound: CC(=O)CC/C=C(\C)CC/C=C(\C)CC/C=C(\C)CCC=C(C)C [CNS-102]
- Mean of cell numbers (cells with neurites) [1]: 0.738 Arbitrary units
- HSP70 induction (HSP70 [2]): strong induction of HSP70
- HSP70 western signal (absence of compounds = 1.00) (HSP70 [3]; 100 nM): 1.38
- HSP70 western signal (absence of compounds = 1.00) (HSP70 [3]; 1 μM): 2.05
- HSP70 western signal (absence of compounds = 1.00) (HSP70 [3]; 10 μM): 2.14
- induction of HSP70 expression (HSP70 [3]; various concentrations): induce expression of HSP70
- HSP70 mean fold change (CNS-102 treated/PBS treated), mean ± SD (HSP70 [4]; 24 h): 1.18 ± 0.01
- HSP70 mean fold change (CNS-102 treated/PBS treated), mean ± SD (HSP70 [4]; 48 h): 1.48 ± 0.02
- HSP70 mean fold change (CNS-102 treated/PBS treated), mean ± SD (HSP70 [4]; 72 h): 1.81 ± 0.01
- HSP70 mean fold change (CNS-102 treated/PBS treated), mean ± SD (HSP70 [4]; 96 h): 1.58 ± 0.03
- HSP70 Expression (average, western blot) (HSP70 [5]; Cortex, 24 hours after 12 mg/kg oral, PBS −0.256): −0.016
- delta HSP70 expression, CNS-102 minus PBS (HSP70 [5]; Cortex, 24 hours): 0.24
- HSP70 Expression (average, western blot) (HSP70 [5]; Cortex, 48 hours after 12 mg/kg oral, PBS −0.56): −0.45
- delta HSP70 expression, CNS-102 minus PBS (HSP70 [5]; Cortex, 48 hours): 0.11
- HSP70 Expression (average, western blot) (HSP70 [5]; Cortex, 72 hours after 12 mg/kg oral, PBS 0.01): 0.14
- delta HSP70 expression, CNS-102 minus PBS (HSP70 [5]; Cortex, 72 hours): 0.13
- HSP70 Expression (average, western blot) (HSP70 [5]; Cortex, 96 hours after 12 mg/kg oral, PBS −0.15): 0.04
- delta HSP70 expression, CNS-102 minus PBS (HSP70 [5]; Cortex, 96 hours): 0.19
- HSP70 Expression (average, western blot) (HSP70 [5]; Hippocampus, 24 hours after 12 mg/kg oral, PBS −0.072): −0.159
- delta HSP70 expression, CNS-102 minus PBS (HSP70 [5]; Hippocampus, 24 hours): −0.088
- HSP70 Expression (average, western blot) (HSP70 [5]; Hippocampus, 48 hours after 12 mg/kg oral, PBS −0.18): 0.02
- delta HSP70 expression, CNS-102 minus PBS (HSP70 [5]; Hippocampus, 48 hours): 0.2
- HSP70 Expression (average, western blot) (HSP70 [5]; Hippocampus, 72 hours after 12 mg/kg oral, PBS −0.2): −0.06
- delta HSP70 expression, CNS-102 minus PBS (HSP70 [5]; Hippocampus, 72 hours): 0.14
- HSP70 Expression (average, western blot) (HSP70 [5]; Hippocampus, 96 hours after 12 mg/kg oral, PBS −0.49): −0.32
- delta HSP70 expression, CNS-102 minus PBS (HSP70 [5]; Hippocampus, 96 hours): 0.17
- Difference of mean fraction damaged to pooled PBS (Sprague Dawley rats; KA at 24 hours): 0.005
- Difference of mean fraction damaged to pooled PBS (Sprague Dawley rats; KA at 48 hours): −0.064
- Difference of mean fraction damaged to pooled PBS (Sprague Dawley rats; KA at 72 hours): −0.092
- Difference of mean fraction damaged to pooled PBS (Sprague Dawley rats; KA at 96 hours): −0.056
- Difference of mean fraction damaged to pooled PBS (Sprague Dawley rats; KA at 168 hours): −0.026
- Mean fraction of cells damaged in the hippocampus (Sprague Dawley rats; KA injected at 24 hours): 0.193
- Mean fraction of cells damaged in the hippocampus (Sprague Dawley rats; KA injected at 48 hours): 0.123
- Mean fraction of cells damaged in the hippocampus (Sprague Dawley rats; KA injected at 72 hours): 0.096
- Mean fraction of cells damaged in the hippocampus (Sprague Dawley rats; KA injected at 96 hours): 0.131
- Mean fraction of cells damaged in the hippocampus (Sprague Dawley rats; KA injected at 168 hours): 0.162
- Mean of Hippocampus CA3 Neurons Damaged (Sprague Dawley rats; 24 mg/Kg rat oral, KA at 72 hours): 19.8182 Arbitrary units
- minimal effective dose (Sprague Dawley rats; one dose of 0, 1, 3, 6, 12 or 24 mg/kg, kainic acid model): 12 mg/kg
- timepoint of maximal protection effect (Sprague Dawley rats; single dose of 12 mg/kg): 72 h
- prenylation of Rap1 compared to control (Rap1; student's t-test, P=0.08): slightly increase the prenylation of Rap1
- unprenylated/total RAP1 (%) (Rap1; with GGTI-298, percentage of control (GGTI only)): 59%
